Our source for the IC50, IC90 and CC50 values is PubChem BioAssay AID1626 (SRMLSC, 2009).

In general, pIC50 refers to the negative decadic logarithm of the IC50, by convention in mol/L. Broadly, the IC90 is the concentration at which the effect reaches the 90% level. What is called CC50 is the concentration that lowers cell viability or growth by half. Read a high CC50 as better tolerance by the cells.

The test system of this experiment is M. tuberculosis H37Rv growth inhibition. Nature of the experiment: M. tuberculosis H37Rv growth inhibitors, H37Rv strain (AID 1626). Particulars: for IC90: measured here: IC90 against H37Rv; for CC50: measured here: Vero cell cytotoxicity.

Molecules are shown by their SMILES. pIC50: −log10 of the molar value.

For the compound `Cc1ccc(N2C(=O)C(F)(F)C2c2ccccc2)cc1` (stereo unspecified), the pIC50 is 5.36 and the IC90 amounted to 19.7 µM.
With `Cc1ccccc1NC(=O)/C=C/c1ccc([N+](=O)[O-])s1`, the pIC50 is 5.84, the IC90 amounted to 1.92 µM and the CC50 was 18.6 µM.
Turning to `Cc1ccc(-c2csc(NC(=O)C[n+]3cc(-c4ccc(C)cc4)n4c3CCC4)n2)cc1`, the pIC50 was 4.95 and the IC90 was determined as 12.6 µM.
On to `CCCCCCCn1c(=O)c(C(=O)Nc2cnccn2)c(O)c2ccccc21`, for which the negative-log IC50 (pIC50) was over 6.71, the IC90 was under 0.195 µM and the CC50 turned out to be 2.37 µM.
For `COc1ccc(Nc2cc(C)nc(-n3nc(C)cc3C)n2)cc1`, in that order: 5.21, over 100 µM and over 40 µM.
`CCc1nnc(NC(=O)c2cccc(C(=O)Nc3nnc(CC)s3)n2)s1` gave an IC90 of 1.09 µM and a CC50 of 3.62 µM.
For `CCC(CC)c1nnc(NC(=O)c2ccc3ccccc3n2)s1`, the negative logarithm of the IC50 (pIC50) is 6.09, the IC90 was determined as 1.48 µM and the CC50 was 35.7 µM.
Consider `CCOC(=O)c1ccc(NC(=O)CCSCCc2ccccn2)cc1`, for which the pIC50 was 4.26 and the IC90 is over 100 µM.
For `O=C1C=CC(O)(c2cc(=O)c3c(O)cc(O)cc3o2)C=C1`, the pIC50 is 5.41, the IC90 was 6.68 µM and the CC50 was found to be 6.81 µM.
As for `COc1cc(N=c2c([N+](=O)[O-])nn(-c3ccc4c(c3)OCCO4)n2O)cc(OC)c1`, the CC50 worked out at 16.2 µM. In other words, the double-digit micromolar range.
Take `c1ccc(-c2cc3c(N4CCN(c5ccccc5)CC4)ncnc3s2)cc1`: the pIC50 is 4.95 and the IC90 is over 100 µM.
For `Cn1c(COc2cccc3ccccc23)nnc1SCC(=O)OC1CCCCC1`, in that order: 5.64 and 6.77 µM.
Regarding `CCOC(=O)c1ccc(NC(=O)CCc2nc(-c3ccc(Cl)cc3)no2)cc1`, the pIC50 is 6.05 and the IC90 was 18.4 µM.
Turning to `CN=C(Nc1cc(Cl)ccc1Cl)SC1CC(=O)N(c2ccc(C(=O)OC)cc2)C1=O` (stereo unspecified), the pIC50 is 4.60, the 90% effect concentration (IC90) was over 100 µM and the 50% cytotoxic concentration (CC50) is over 40 µM.
Consider `CCCSC1=C(C#N)C(c2cccs2)C(C(=O)Nc2ccccc2)=C(C)N1` (stereo unspecified), for which the pIC50 was 5.11, the IC90 was determined as 68.2 µM and the CC50 was over 40 µM.
Regarding `Clc1ccc(-c2ccc(C=Nc3ccc(N4CCOCC4)cc3)o2)cc1`, the pIC50 was 5.12 and the IC90 is over 100 µM.
For the compound `Brc1ccc(CSc2ncn[nH]2)cc1`, the negative-log IC50 (pIC50) is 4.34, the concentration for an effect of 90% (IC90) is over 100 µM and the CC50 is over 40 µM.
For `CCOc1ccc(CN(C)C(=O)CCl)cc1`, in that order: 4.57, over 100 µM and 12.7 µM.
Turning to `O=C(C[n+]1cnn(CC(=O)c2ccc(Cl)cc2Cl)c1)c1ccc([N+](=O)[O-])cc1`, the pIC50 is 4.69 and the IC90 was found to be 36.8 µM.
As for `COC(=O)c1ccccc1Sc1ncnc2onc(C)c12`, the pIC50 is 4.82, the IC90 is 30.7 µM and the CC50 is over 40 µM.
The compound `Nc1cnn(Cc2ccc(F)cc2)c1` came in with an IC90 of over 100 µM.
Compound `COc1ccc2ncc(OC(C)=O)cc2c1` registered an IC90 of over 100 µM.
On to `OC(COCC(F)(F)C(F)(F)C(F)(F)C(F)F)Cn1c2ccc(Cl)cc2c2cc(Cl)ccc21` (stereo unspecified), for which the negative logarithm of the IC50 (pIC50) is 5.15, the IC90 amounted to 9.92 µM and the 50% cytotoxic concentration (CC50) turned out to be 13.3 µM.
For `COc1ccc(N=c2cc(-c3ccc(O)cc3)oc3ccccc23)cc1`, in that order: 5.24, 9.5 µM and 34.3 µM.
For `COc1ccc(NC(=O)CCc2nc(-c3ccc(C)cc3)no2)cc1Cl`, in that order: 5.45, over 100 µM and over 40 µM.
With `Cn1nnnc1SCC(=O)Nc1nc(-c2ccccc2)c(-c2ccccc2)o1`, the pIC50 was 4.45, the IC90 is over 100 µM and the CC50 was over 40 µM.
For `Cc1nc(N2CCN(c3ccccn3)CC2)c2c(C)c(C(=O)Nc3ccccc3F)sc2n1`, in that order: 5.05, over 100 µM and over 40 µM.
For `CCN(CC)CCOC(=O)c1ccc(N/C=C(/C#N)c2nc(-c3cccc(OC)c3)cs2)cc1`, in that order: 5.35, 20.2 µM and 10.8 µM.
Regarding `O=C1c2ccccc2C(Nc2ccc(-c3nc4ccccc4[nH]3)cc2)N1Cc1ccco1` (stereo unspecified), the pIC50 is 5.04, the 90% effect concentration (IC90) amounted to 20.8 µM and the CC50 is over 40 µM.
As to `O=C(Nc1nnc(SCc2ccc(F)cc2)s1)c1cnccn1`, the negative-log IC50 (pIC50) is 4.81, the IC90 is over 100 µM and the CC50 is over 40 µM.
`COc1ccc(/C=C2\Sc3ccc(C(=O)NCc4cccnc4)cc3N(C)C2=O)cc1OC`: the pIC50 was 4.89 and the IC90 turned out to be 31.1 µM.
On to `O=C(Oc1ccc(-c2cnc3ccccc3n2)cc1)c1ccc(Cl)c([N+](=O)[O-])c1`, for which the pIC50 is 5.28 and the IC90 turned out to be 23.4 µM.
`Cc1ccc(C)c(SCC(=O)OC/C(O)=C(\C#N)c2nc3ccccc3[nH]2)c1`: the pIC50 was 5.51, the IC90 amounted to 4.9 µM and the CC50 was over 40 µM.
For the compound `COc1ccc(C(=O)OCCNC(=O)c2c(Cl)nc3ccccn23)cc1`, the pIC50 was 5.29 and the IC90 is 15.8 µM.
With `O=C(Nc1nnc(-c2ccco2)o1)c1cccc2ccccc12`, the pIC50 was 5.63, the IC90 worked out at 6.25 µM and the 50% cytotoxic concentration (CC50) was determined as 39.4 µM.
For `CCOC(=O)c1ccc(NC(=O)COc2ccccc2CNCCc2ccccc2)cc1`, in that order: 5.32, 6.88 µM and 25.2 µM.
As to `O=C(COc1ccc2ccccc2c1)Nc1nccs1`, the IC90 was over 100 µM.
As for `CC(C)[C@H](CO)N(Cc1cccc(F)c1)c1nc(Nc2cccc(Cl)c2)c2ncn(C(C)C)c2n1`, the pIC50 was 5.14, the IC90 amounted to 14.1 µM and the CC50 was over 40 µM.
As to `CCOC(=O)CSc1nnc(-c2cc(OC)c(OC)c(OC)c2)o1`, the pIC50 was 5.79 and the IC90 came to 4.38 µM.
For `CCOC(=O)c1cccc(NC(=O)CCc2nc(-c3ccc(C)cc3)no2)c1`, the pIC50 is 4.52 and the IC90 is over 100 µM.
Take `O=C(CCl)Nc1ccccc1C(=O)NCc1ccccc1`: the pIC50 is 5.09, the IC90 is 21.2 µM and the CC50 was 24.4 µM.
Consider `Nc1ccc(C(=O)O)c(O)c1`, for which the negative logarithm of the IC50 (pIC50) was over 6.71 and the IC90 is over 100 µM.
Take `COc1cnc(-c2ccccn2)nc1Sc1ccc(C)cc1`: the pIC50 was over 6.71, the IC90 amounted to 2.92 µM and the CC50 was found to be 4.24 µM.
For `O=C(c1cc2nc(-c3ccc(F)cc3)cc(C(F)(F)F)n2n1)N1CCCCC1c1cccnc1` (stereo unspecified), in that order: 5.04, 14 µM and over 40 µM.
Turning to `CC(C)c1ccc(CNc2nc3nc4c(c(=O)n3[nH]2)CCC4)cc1`, the pIC50 was 6.33 and the IC90 was over 100 µM.
As for `N#Cc1ncc(-c2ccc3c(c2)OCCOCCOCCOCCOCCO3)nc1C#N`, the pIC50 was 5.74, the 90% effect concentration (IC90) is 3.08 µM and the CC50 is 22.6 µM.
As to `CCOC(=O)c1ccc(NC(=O)CCc2ccc(CC)o2)cc1`, the pIC50 was 5.65 and the IC90 is 17.2 µM.
As for `Cc1cccc(OCCCCc2c(C)n[nH]c2C)c1C`, the pIC50 was 5.56, the IC90 turned out to be 3.87 µM and the CC50 amounted to 30.2 µM.
In the case of `COc1cc(CC(=O)Nc2ccc3nc(SC)sc3c2)cc(OC)c1OC`, the pIC50 was 4.95 and the IC90 stood at 16.1 µM.
Consider `Cc1cccc(N2CCN(C(=O)c3ccc4nc(N5CCCCC5)sc4c3)CC2)c1C`, for which the pIC50 was 5.10, the IC90 was found to be 11.2 µM and the CC50 was over 40 µM.
As for `O=C(CSc1nc2ccc(Cl)cc2[nH]1)Nc1ccc2c(c1)CCC2`, the negative logarithm of the IC50 (pIC50) was 4.53, the 90% effect concentration (IC90) was over 100 µM and the CC50 was over 40 µM.
For `CCCCCCn1c(=O)c(C(=O)Nc2nc(CC(=O)OCC)cs2)c(O)c2ccccc21`, in that order: over 6.71, under 0.195 µM and 4.53 µM.
On to `Cc1ccc([N+](=O)[O-])cc1NC(=O)CN(C(=O)c1ccccc1Cl)C1CCCCC1`, for which the pIC50 is 5.49 and the IC90 worked out at 5.22 µM.
With `CCOc1ccc2nc(NC(=O)CSc3nnnn3C3CCCCC3)sc2c1`, the pIC50 was 4.25 and the IC90 is over 100 µM.
Regarding `O=C(CCC(=O)OCc1ccc(C(=O)Oc2ccccc2)cc1)Nc1cccc2ccccc12`, the pIC50 was 5.15, the IC90 was found to be 10.1 µM and the CC50 is over 40 µM.
In the case of `Clc1ccc(OCCCNCc2ccccc2)c(Br)c1`, the negative logarithm of the IC50 (pIC50) is 4.64, the IC90 was 25.1 µM and the CC50 is over 40 µM.
For `COc1cnc(-c2ccccn2)nc1Sc1ccc(F)cc1`, in that order: over 6.71, 12.9 µM and 19.2 µM.
On to `COc1ccc(CCNc2cc(C)nc3c(-c4ccc(Cl)cc4)c(C)nn23)cc1OC`, for which the pIC50 is 6.00, the concentration for an effect of 90% (IC90) was 5.53 µM and the 50% cytotoxic concentration (CC50) was over 40 µM.
For the compound `O=C(Nc1cccc2ccccc12)c1ccc([N+](=O)[O-])s1`, the negative-log IC50 (pIC50) was 4.29 and the IC90 is over 100 µM.
Regarding `CCCCOc1ccc(NC(=O)C2CC=CCC2C(=O)O)cc1` (stereo unspecified), the pIC50 was 4.12 and the 90% effect concentration (IC90) is over 100 µM.
On to `CCOc1ccc(-c2csc(/C(C#N)=C\c3ccc(O)c([N+](=O)[O-])c3)n2)cc1`, for which the pIC50 is 5.07, the IC90 is 14.9 µM and the CC50 amounted to 10.9 µM.
For `CCOc1ccc(Nc2nc(N)nc(CN3CCN(c4ccccc4F)CC3)n2)cc1`, the pIC50 was 5.11 and the IC90 came out at 16.8 µM.
Take `Cc1ccc(-c2ccc(/C=C3\SC(N4CCOCC4)=NC3=O)o2)cc1`: the pIC50 is 4.63, the IC90 was over 100 µM and the CC50 was over 40 µM.
For `CC(C)(C)c1ccc(C(=O)CC(=O)c2cc(Cl)ccc2O)cc1`, the pIC50 was 5.57, the IC90 turned out to be 3.14 µM and the CC50 was determined as 12.4 µM.
